In ChEMBL document CHEMBL1201862, “PubChem BioAssay data set” (2004):
Values belong to the compound of their own block, whether it stands above or below them. Activity calls are given as the source filed them.

Columns and labels:
[1] = inhibitors of intracellular T. cruzi replication, confirmation, NIH3T3 host cells, beta-gal luminescence (AID 2044); type: functional, cell-based;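 further: intracellular parasites grown in NIH/3T3 mouse fibroblasts as host cells; luminescent beta-galactosidase reporter signal from transgenic T. cruzi replicating inside host cells; inhibitors lower the luminescence signal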
[2] = cytotoxicity toward NIH3T3 fibroblasts, dose response, counter-screen, cell-based, ATP luminescence, mouse fibroblasts (AID 2010); type: functional;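 further: cells exposed to compound for about 90 hours before reading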
[3] = molecular target: Luciferin 4-monooxygenase (Photinus pyralis, UniProt P08659); assay: firefly luciferase enzyme inhibitors, dose response, biochemical, luminescence (AID 1891)
Luciferin 4-monooxygenase, sequence (P08659 whole entry): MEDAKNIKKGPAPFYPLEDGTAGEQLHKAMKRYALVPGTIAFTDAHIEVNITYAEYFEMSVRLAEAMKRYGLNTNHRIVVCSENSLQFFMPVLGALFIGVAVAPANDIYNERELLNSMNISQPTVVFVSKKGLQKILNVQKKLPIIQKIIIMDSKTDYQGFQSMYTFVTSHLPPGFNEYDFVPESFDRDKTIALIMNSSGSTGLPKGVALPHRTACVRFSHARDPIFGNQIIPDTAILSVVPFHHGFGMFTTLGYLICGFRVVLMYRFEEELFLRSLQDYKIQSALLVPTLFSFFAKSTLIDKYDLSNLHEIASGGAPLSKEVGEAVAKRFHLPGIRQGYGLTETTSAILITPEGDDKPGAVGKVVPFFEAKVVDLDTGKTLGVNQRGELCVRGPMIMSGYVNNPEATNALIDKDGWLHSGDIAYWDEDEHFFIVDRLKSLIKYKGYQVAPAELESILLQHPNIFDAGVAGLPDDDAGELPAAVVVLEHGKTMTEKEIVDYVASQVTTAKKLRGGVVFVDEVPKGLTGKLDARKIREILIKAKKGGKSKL

[4] = Luminescence Cell-Based Dose Confirmation HTS to Identify Inhibitors of Platelet Dense Granule Release. [Related pubchem assays: 1663 (Primary HTS), 1678 (Summary of Project)]; type: functional
[5] = molecular target: Cytochrome P450 2D6 (Homo sapiens, UniProt P10635);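 further: CYP2D6 member of a cytochrome P450 panel assay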
Cytochrome P450 2D6, sequence (P10635 whole entry): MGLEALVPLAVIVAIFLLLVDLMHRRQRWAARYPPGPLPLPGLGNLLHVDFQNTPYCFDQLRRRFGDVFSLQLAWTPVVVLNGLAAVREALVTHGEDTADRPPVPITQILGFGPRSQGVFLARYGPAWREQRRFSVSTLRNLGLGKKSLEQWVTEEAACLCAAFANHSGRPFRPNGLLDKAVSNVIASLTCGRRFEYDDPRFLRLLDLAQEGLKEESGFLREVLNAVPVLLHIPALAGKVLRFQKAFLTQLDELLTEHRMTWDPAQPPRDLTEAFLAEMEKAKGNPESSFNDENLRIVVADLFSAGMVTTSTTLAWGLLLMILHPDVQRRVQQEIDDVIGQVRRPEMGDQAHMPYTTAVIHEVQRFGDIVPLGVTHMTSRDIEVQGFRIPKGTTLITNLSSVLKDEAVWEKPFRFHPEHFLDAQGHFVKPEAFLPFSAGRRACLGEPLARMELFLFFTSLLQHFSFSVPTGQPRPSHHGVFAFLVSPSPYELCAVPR

[6] = molecular target: T1, Corticotropin-releasing factor receptor 2/Corticotropin-releasing factor-binding protein (Homo sapiens, UniProt P24387+Q13324); assay: activators of CRF receptor 2 with binding protein – uHTS hits, confirmation (AID 602473); type: functional; details: read-out: EC50_Mean
T1 sequence (Q13324 whole entry): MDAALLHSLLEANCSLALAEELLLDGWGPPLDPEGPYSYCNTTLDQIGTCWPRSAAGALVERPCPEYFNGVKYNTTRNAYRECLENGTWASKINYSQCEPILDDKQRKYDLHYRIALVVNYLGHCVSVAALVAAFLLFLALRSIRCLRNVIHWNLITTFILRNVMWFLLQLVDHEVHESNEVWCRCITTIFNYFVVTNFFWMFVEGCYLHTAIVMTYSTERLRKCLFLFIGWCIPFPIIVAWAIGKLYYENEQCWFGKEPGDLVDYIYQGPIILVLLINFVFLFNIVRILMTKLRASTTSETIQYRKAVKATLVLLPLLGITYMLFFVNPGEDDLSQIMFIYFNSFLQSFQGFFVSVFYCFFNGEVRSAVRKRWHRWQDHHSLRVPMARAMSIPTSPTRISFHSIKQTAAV
T1 sequence (P24387 whole entry): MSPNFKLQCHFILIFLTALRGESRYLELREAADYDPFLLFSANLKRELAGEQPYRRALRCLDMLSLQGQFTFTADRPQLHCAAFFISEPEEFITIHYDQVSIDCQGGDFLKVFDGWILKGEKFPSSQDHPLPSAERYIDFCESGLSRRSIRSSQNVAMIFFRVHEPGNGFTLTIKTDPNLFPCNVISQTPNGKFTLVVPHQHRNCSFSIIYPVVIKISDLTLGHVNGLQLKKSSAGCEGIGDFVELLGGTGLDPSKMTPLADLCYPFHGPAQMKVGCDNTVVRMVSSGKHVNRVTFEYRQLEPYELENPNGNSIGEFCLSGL

[7] = HEp-2 cell cytotoxicity, dose response, cytotoxicity control for RSV inhibitor project, HTS (AID 2410); type: functional; details: human respiratory syncytial virus
[8] = molecular target: Cytochrome P450 2C19 (Homo sapiens, UniProt P33261); assay: Cytochrome panel assay with activity outcomes. Panel member name: p450-cyp2c19 Compounds with AC50 equal or less than 10 uM are considered active; type: functional
Cytochrome P450 2C19, sequence (P33261 whole entry): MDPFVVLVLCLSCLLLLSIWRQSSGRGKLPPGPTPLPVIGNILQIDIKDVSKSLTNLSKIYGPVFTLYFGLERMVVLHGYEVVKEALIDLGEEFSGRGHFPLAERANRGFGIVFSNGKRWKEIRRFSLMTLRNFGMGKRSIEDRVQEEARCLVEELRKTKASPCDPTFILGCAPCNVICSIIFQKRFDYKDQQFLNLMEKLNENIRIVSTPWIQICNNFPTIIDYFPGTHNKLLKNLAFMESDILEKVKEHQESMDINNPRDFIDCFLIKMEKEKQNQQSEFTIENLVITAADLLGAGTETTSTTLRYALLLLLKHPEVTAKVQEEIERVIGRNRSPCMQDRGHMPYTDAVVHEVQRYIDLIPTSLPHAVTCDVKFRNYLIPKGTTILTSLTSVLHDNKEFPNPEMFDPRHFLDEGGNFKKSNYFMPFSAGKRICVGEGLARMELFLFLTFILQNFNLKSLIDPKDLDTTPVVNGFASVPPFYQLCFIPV

[9] = system: Streptococcus sp. 'group A'; assay: growth inhibition of control SK(-) GAS strain, dose response, counter-screen for streptokinase expression inhibitor project, luminescence, kanamycin, BacTiterGlo, confirmation (AID 1900); type: functional, organism-based
[10] = system: Streptococcus; assay: Group A Streptococcus viability loss, dose response, counter-screen for streptokinase expression inhibitor project, luminescence, BacTiterGlo (AID 1915); type: functional, organism-based;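 further: potency for reduction of bacterial viability or growth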

SMILES: COc1ccc(N(CC(=O)NCCC2=CCCCC2)S(=O)(=O)c2ccccc2)cc1OC
EC50 [1]: 3.35 µM (active)
EC50 [2]: > 60 µM (not active)

SMILES: COC(=O)c1c(NC(=O)C2CC(=O)NN2Cc2ccccc2)sc(C)c1C (stereo not drawn)
EC50 [3]: > 112 µM (not active)
EC50 [4]: > 112 µM (not active)

SMILES: CCOc1ccccc1C1c2[nH]c3ccccc3c2C[C@H]2C(=O)N(C3CCN(Cc4ccccc4)CC3)CC(=O)N12 (stereo partly drawn)
EC50 [1]: 2.15 µM (active)
EC50 [2]: > 60 µM (not active)

SMILES: CCOc1ccc(C(=O)O/N=C(\N)c2ccccn2)cc1OCC
EC50 [3]: > 112 µM (not active)
EC50 [4]: > 112 µM (not active)

AC50 [5]: 14.1 µM (inconclusive)
SMILES: COc1cc(O)oc1/C=N/c1ccc(Cl)cc1

EC50 [6]: > 53 µM (inactive)
SMILES: O=C(Nc1ncc(Cc2ccc(Cl)cc2Cl)s1)c1ccc([N+](=O)[O-])cc1

SMILES: c1ccc2c(N3CCCCCC3)nc(-c3ccncc3)nc2c1
CC50 [7]: 15.9 µM (active)

SMILES: CN(C)CCOC(=O)C1(c2ccccc2)CCCC1
EC50 [3]: > 112 µM (not active)
EC50 [4]: > 112 µM (not active)

SMILES: CCOCCCN1C(=O)CN(C2CCC(C)CC2)C(=O)C1c1ccc(C)cc1 (stereo not drawn)
EC50 [3]: > 112 µM (not active)
EC50 [4]: > 112 µM (not active)

SMILES: CC1CCCCN1S(=O)(=O)c1ccc(S(=O)(=O)N(Cc2ccccc2)Cc2ccco2)cc1 (stereo not drawn)
EC50 [1]: 1.09 µM (active)
EC50 [2]: > 60 µM (not active)

SMILES: Cc1ccc(-c2nc(SC(C)C(=O)N3CCOCC3)n[nH]2)cc1 (stereo not drawn)
EC50 [3]: > 112 µM (not active)
EC50 [4]: > 112 µM (not active)

SMILES: Cc1nc2c(C(=O)NCc3ccco3)cnn2c(C)c1Cc1ccc(F)cc1Cl
EC50 [1]: 2.17 µM (active)
EC50 [2]: > 30 µM (not active)

SMILES: Cc1nn(C)cc1CNC(=O)C1CCC(=O)N(CC2CCCCC2)C1 (stereo not drawn)
EC50 [3]: > 112 µM (not active)
EC50 [4]: > 112 µM (not active)

SMILES: COc1ccc(Cl)cc1Nc1nc(-c2sc(NC(=O)c3ccco3)nc2C)cs1
CC50 [7]: 35.4 µM (active)

AC50 [5]: 25.1 µM (inconclusive)
SMILES: CCc1ccc(C(C(=O)NCc2ccc(OC)cc2)N(CCOC)C(=O)Cc2cccs2)cc1 (stereo not drawn)

SMILES: Nc1cccc2c1Cc1cc([N+](=O)[O-])ccc1-2
EC50 [6]: > 53 µM (inactive)

SMILES: Cn1c(=O)c2c(SCC(=O)N3CCCc4ccccc43)nc(CC(C)(C)C)nc2n(C)c1=O
CC50 [7]: > 50 µM (active)

SMILES: CCOC(=O)c1c(NC(=O)CN2C(=O)NC3(CCCCC3C)C2=O)sc(C)c1CC (stereo not drawn)
EC50 [1]: 2.37 µM (active)
EC50 [2]: > 60 µM (not active)

SMILES: CC(=O)OCCN1C(=O)c2cccc3cc([N+](=O)[O-])cc(c23)C1=O
EC50 [1]: 0.358 µM (active)
EC50 [2]: > 30 µM (not active)

EC50 [6]: 4.9 µM (active)
SMILES: CCOC(=O)/C=c1/s/c(=C/c2ccc3cc(OC)ccc3c2)c(=O)n1CC(=O)NCc1ccc2c(c1)OCO2

AC50 ([8]; read-out: AC50): 0.00562 µM (inconclusive)
SMILES: COc1cc(N2CCOCC2)ncn1

SMILES: COc1ccc(-c2noc(CCCC(=O)NCC3CCCO3)n2)cc1 (stereo not drawn)
CC50 [7]: 30.3 µM (active)

SMILES: Sc1ncnc2c1sc1nc(N3CCOCC3)c3c(c12)CCCC3
CC50 [7]: > 50 µM (active)

AC50 ([8]; read-out: AC50): 15.8 µM (inconclusive)
AC50 [5]: 4.47 µM (inconclusive)
SMILES: Cc1cccc(OCC(=O)NNC(=O)CSc2ncc(C#N)c(N)n2)c1

SMILES: CSc1scc2c1-c1nc(SCC(=O)C(C)(C)C)ncc1CC2
CC50 [7]: 20.6 µM (active)

SMILES: CNc1ccc(Oc2nc([N+](=O)[O-])nn2C)cc1
EC50 [1]: 1.43 µM (active)
EC50 [2]: > 60 µM (not active)

AC50 ([8]; read-out: AC50): 20 µM (inconclusive)
AC50 [5]: 12.6 µM (inconclusive)
SMILES: O=C(Nc1cccc(F)c1)N1CCC2(CCNCC2)CC1

EC50 [6]: 1.24 µM (active)
SMILES: Cc1c(/C=N/NC(=O)C(NC(=O)c2ccc3c(c2)OCO3)C(C)C)c2ccccc2n1C (stereo not drawn)

SMILES: COc1cccc(/C=N/NC(=O)C(=O)N/N=C/c2cccc(OC)c2OC)c1OC
EC50 [3]: > 112 µM (not active)
EC50 [4]: > 112 µM (not active)

SMILES: c1ccc(-c2cc3c(N4CCCC4)ncnc3s2)cc1
CC50 [7]: > 50 µM (active)

SMILES: O=C(CCCc1ccccn1)c1ccccc1
AC50 ([8]; read-out: AC50): 2.51 µM (inconclusive)

SMILES: CCN(CC)S(=O)(=O)c1ccc(NN=C2CCN(C)CC2)c([N+](=O)[O-])c1
EC50 [1]: 0.482 µM (active)
EC50 [2]: > 60 µM (not active)

SMILES: NC(=S)N/N=C/c1ccc(-c2cc(Cl)cc(Cl)c2)o1
EC50 [1]: 2.67 µM (active)
EC50 [2]: > 60 µM (not active)

SMILES: COc1ccc(-n2nc3c(N4CCC(C(=O)N5CCCCCC5)CC4)nnc(C)c3c2C)cc1
EC50 [1]: 0.858 µM (active)
EC50 [2]: > 60 µM (not active)

SMILES: CCOC(=O)c1cnc2c(C#N)c(C)nn2c1-c1ccccc1
EC50 [3]: > 112 µM (not active)
EC50 [4]: 54.1 µM (active)

SMILES: CC(=O)c1sc(N/N=C\c2c(O)ccc3ccccc23)nc1C
EC50 [9]: 4.07 µM (active)
EC50 [10]: 7.49 µM (active)

AC50 [5]: 15.8 µM (inconclusive)
SMILES: C[C@@H]1CN(CCCn2c3ccccc3c3ccccc32)C[C@H](C)N1 [RIMCAZOLE]

AC50 [5]: 44.7 µM (inconclusive)
SMILES: COC(=O)Cn1c(=N)n(CCN2CCCCC2)c2ccccc21

SMILES: CCc1ccc2nc(O)c(CN(Cc3ccccc3)C(=O)Nc3ccccc3OC)cc2c1
EC50 [1]: 1.93 µM (active)
EC50 [2]: > 60 µM (not active)

SMILES: COc1cccc(-c2cc(C(=O)Nc3ccc(N(C)C(C)=O)cc3)c3cc(Br)ccc3n2)c1
EC50 [1]: 1.83 µM (active)
EC50 [2]: > 60 µM (not active)

AC50 [5]: 3.16 µM (inconclusive)
SMILES: N#Cc1c(-c2ccc3c(c2)OCO3)ccn2nc(-c3cccc(C(F)(F)F)c3)nc12

SMILES: Nc1ccn(-c2ccc(Cl)cc2)c(=O)c1
EC50 [3]: > 112 µM (not active)
EC50 [4]: > 112 µM (not active)

SMILES: Cc1nn(C)c(Cl)c1CN1CCCC(CCC(=O)NCc2ccccc2F)C1 (stereo not drawn)
EC50 [1]: 0.181 µM (active)
EC50 [2]: > 30 µM (not active)

SMILES: O=C(c1ccc(Cl)cc1)C1CCCN(Cc2cnn(-c3ccccc3)c2)C1 (stereo not drawn)
EC50 [1]: 0.503 µM (active)
EC50 [2]: > 60 µM (inconclusive)

AC50 ([8]; read-out: AC50): 0.316 µM (inconclusive)
SMILES: O=C1OCCC=C1[C@@H](O)CCc1ccccc1

EC50 [6]: 5.48 µM (active)
SMILES: COc1cc(OC)c(OC)cc1/C=C1/Cc2ccccc2C1=O

SMILES: Nc1nn(S(=O)(=O)c2ccccc2)cc1-c1cccc([N+](=O)[O-])c1
EC50 [1]: 1.83 µM (active)
EC50 [2]: > 60 µM (not active)

SMILES: CCN(CC)S(=O)(=O)c1ccc2c(c1)nc(CCC(=O)O)n2C
EC50 [3]: > 112 µM (not active)
EC50 [4]: > 112 µM (not active)

AC50 [5]: 14.1 µM (inconclusive)
SMILES: Cc1cc2cc3c(cc2nc1SCC(=O)Nc1c(C)cccc1C)CCC3

SMILES: COC(=O)c1c(NC(=O)CN2C(=O)NC3(CCC(C(C)(C)C)CC3)C2=O)sc2c1CCCCC2 (stereo not drawn)
EC50 [1]: 3.11 µM (active)
EC50 [2]: > 60 µM (not active)

SMILES: Cc1ccc(/C=C/C(=O)Nc2ccccc2C(N)=O)cc1
EC50 [3]: 3.26 µM (active)
EC50 [4]: 22.3 µM (active)

SMILES: Cc1ccc(C)c(OCC(O)CN2CCc3ccccc3C2)c1C (stereo not drawn)
CC50 [7]: 46.3 µM (active)

AC50 ([8]; read-out: AC50): 7.08 µM (inconclusive)
SMILES: Cc1ccc(NC(=O)C(=O)NCc2ccc(/C=C(/C#N)C(=O)NCc3cccnc3)o2)cc1

SMILES: Fc1ccc(/C=N/Nc2nccnc2Cl)cc1
EC50 [3]: 8.1 µM (active)
EC50 [4]: 1.65 µM (active)

AC50 ([8]; read-out: AC50): 25.1 µM (inconclusive)
SMILES: COC(=O)[C@@]1(Cc2ccc(OC)cc2)[C@H]2c3cc(C(=O)N(C)C)n(C)c3C[C@H]2CN1C(=O)c1ccccc1

AC50 [8]: inconclusive
SMILES: O=C(O)CC1(CC(=O)O)Nc2ccccc2SC1=O

SMILES: COc1ccc(CN2CCNC(=O)C2CC(=O)NCC(C)(C)N2CCOCC2)cc1C (stereo not drawn)
EC50 [3]: > 112 µM (not active)
EC50 [4]: > 112 µM (not active)

EC50 [6]: 5.44 µM (active)
SMILES: COc1cc(C)c(C)cc1S(=O)(=O)N1CCCc2ccccc21

SMILES: CN(C)c1ccc(/C=N/N=C(N)N)cc1[N+](=O)[O-]
EC50 [1]: 0.144 µM (active)
EC50 [2]: > 60 µM (not active)

AC50 [5]: 10 µM (inconclusive)
SMILES: O=C(c1cccc(F)c1)N1CCC2(CCCN(Cc3ccccc3)C2)CC1
